Where two headings read alike, the source gives them in different places.
Experiment: log P determination (HPLC, calibration with unbranched alkan-2-ones)
Format: physicochemical
Protocol: The calibration is carried out using unbranched alkan-2-ones (having 3 to 16 carbon atoms) with known log P values (determination of the log P values by the retention times using linear interpolation between two successive alkanones). The lambda-maX values were determined in the maxima of the chromatographic signals using the UV spectra from 200 nm to 400 nm.

[1] = * LC-MS determination in the acidic range at pH 2.7, 0.1% aqueous formic acid and acetonitrile, linear gradient 10% to 95% acetonitrile
[2] = pH 2.7, read-out: log P (pH 2.7)
[3] = reversed-phase C18 HPLC column, * LC-MS determination in the acidic range at pH 2.7, mobile phases 0.1% aqueous formic acid and acetonitrile (0.1% formic acid), linear gradient 10% to 95% acetonitrile, reversed-phase C 18 HPLC, read-out: log p
[4] = * LC-MS determination in the acidic range at pH 2.7, mobile phases 0.1% aqueous formic acid and acetonitrile (0.1% formic acid), linear gradient 10% to 95% acetonitrile, reversed-phase C 18 HPLC

Cc1cc(C)n(C(C)(C)C(=O)N2CCC(c3nc(C(=O)OC4CCCc5ccccc54)cs3)CC2)n1 (centres unmarked) [compound 368]
log p [1]: 4.04*

Cc1cc(C)n(C(C)(C)C(=O)N2CCC(c3nc(C(=O)OC[Si](C)(C)C)cs3)CC2)n1 [compound 369]
log p [1]: 3.84*

Cc1cc(C)n(C(C)(C)C(=O)N2CCC(c3nc(C(=O)OC4CCCCC4)cs3)CC2)n1 [compound 370]
log p [1]: 3.78*

Cc1cc(C)n(C(C)(C)C(=O)N2CCC(c3nc(C(=O)OCC4CC4)cs3)CC2)n1 [compound 372]
log p [1]: 3.86*

Cc1cc(C)n(C(C)(C)C(=O)N2CCC(c3nc(C(=O)OC4CCc5ccccc54)cs3)CC2)n1 (centres unmarked) [compound 376]
log p [1]: 3.68*

Cc1cc(C)n(C(C)(C)C(=O)N2CCC(c3nc(C(=O)Oc4cccc5ccccc45)cs3)CC2)n1 [compound 377]
log p [1]: 3.82*

Cc1cc(C)n(C(C)(C)C(=O)N2CCC(c3nc(C(=O)Oc4ccc5ccccc5c4)cs3)CC2)n1 [compound 378]
log p [1]: 3.73*

Cc1cc(C)n(C(C)(C)C(=O)N2CCC(c3nc(C(=O)OCc4ccccc4)cs3)CC2)n1 [compound 379]
log p [1]: 3.19*

Cc1cc(C)n(C(C)(C)C(=O)N2CCC(c3nc(C(=O)OCCc4ccc(F)cc4)cs3)CC2)n1 [compound 405]
log p [1]: 3.42*

Cc1cc(C)n(C(C)(C)C(=O)N2CCC(c3nc(C(=O)Oc4ccccc4)cs3)CC2)n1 [compound 412]
log p [1]: 3.06*

Cc1cc(C)n(C(C)(C)C(=O)N2CCC(c3nc(C(=O)Oc4ccc(F)cc4)cs3)CC2)n1 [compound 413]
log p [1]: 3.21*

Cc1cc(C)n(C(C)(C)C(=O)N2CCC(c3nc(C(=O)OCc4ccncc4)cs3)CC2)n1 [compound 442]
log p [1]: 1.33*

Cc1cc(C)n(C(C)(C)C(=O)N2CCC(c3nc(C(=O)OCc4cccs4)cs3)CC2)n1 [compound 443]
log p [1]: 3.06*

CC(C)(C)CCOC(=O)c1csc(C2CCN(C(=O)Cn3ccc(C(F)(F)F)n3)CC2)n1 [compound 767, 3,3-Dimethylbutyl 2-(1-{[3-(trifluoromethyl)-1H-pyrazol-1-yl]acetyl}piperidin-4-yl)-1,3-thiazole-4-carboxylate]
chromatographic logP [2]: 3.82
chromatographic logP (reversed-phase (C18) HPLC column, * LC-MS determination in the acidic range at pH 2.7, 0.1% aqueous formic acid and acetonitrile, linear gradient 10% to 95% acetonitrile, read-out: log p): 3.82

O=C(Oc1cccc2ccccc12)c1csc(C2CCN(C(=O)Cn3nc(C(F)(F)F)cc3C(F)(F)F)CC2)n1 [compound 771, 1-Naphthyl 2-(1-{[3,5-bis(trifluoromethyl)-1H-pyrazol-1-yl]acetyl}piperidin-4-yl)-1,3-thiazole-4-carboxylate]
chromatographic logP [2]: 4.35
chromatographic logP [3]: 4.35

O=C(OC1CCCCC1)c1csc(C2CCN(C(=O)Cn3nc(C(F)(F)F)cc3C(F)(F)F)CC2)n1 [compound 772, Cyclohexyl 2-(1-{[3,5-bis(trifluoromethyl)-1H-pyrazol-1-yl]acetyl}piperidin-4-yl)-1,3-thiazole-4-carboxylate]
chromatographic logP [2]: 4.39
chromatographic logP [3]: 4.39

CC(C(=O)N1CCC(c2nc(C(=O)Oc3cccc4ccccc34)cs2)CC1)n1ccc(C(F)(F)F)n1 (centres unmarked) [compound 773]
log p [4]: 3.87*

CC(C(=O)N1CCC(c2nc(C(=O)OC3CCCCC3)cs2)CC1)n1ccc(C(F)(F)F)n1 (centres unmarked) [compound 774]
log p [4]: 3.88*

Cc1cc(C(F)(F)F)nn1CC(=O)N1CCC(c2nc(C(=O)OCc3ccc(Cl)c(Cl)c3)cs2)CC1 [compound 775]
log p [4]: 4.09*

Cc1cc(C(F)(F)F)nn1CC(=O)N1CCC(c2nc(C(=O)OCc3ccc(C(F)(F)F)cc3)cs2)CC1 [compound 776]
log p [4]: 3.86*

O=C(Oc1cccc2ccccc12)c1csc(C2CCN(C(=O)Cn3nc(C(F)(F)F)cc3-c3ccccc3)CC2)n1 [compound 777]
log p [4]: 4.50*

Cc1cc(C(F)(F)F)nn1CC(=O)N1CCC(c2nc(C(=O)OC/C=C/c3ccccc3)cs2)CC1 [compound 779]
log p [4]: 3.74*

Cc1cc(C(F)(F)F)nn1CC(=O)N1CCC(c2nc(C(=O)OCc3cccnc3)cs2)CC1 [compound 780]
log p [4]: 1.74*

Cc1cc(C(F)(F)F)nn1CC(=O)N1CCC(c2nc(C(=O)Oc3ccc4cccnc4c3)cs2)CC1 [compound 781]
log p [4]: 2.42*

Cc1cc(C(F)(F)F)nn1CC(=O)N1CCC(c2nc(C(=O)Oc3cccc4cccnc34)cs2)CC1 [compound 782]
log p [4]: 2.88*

Cc1cc(C(F)(F)F)nn1CC(=O)N1CCC(c2nc(C(=O)OCc3cccc4ccccc34)cs2)CC1 [compound 783]
log p [4]: 3.90*

Cc1cc(C(F)(F)F)nn1CC(=O)N1CCC(c2nc(C(=O)OCc3ccc4ccccc4c3)cs2)CC1 [compound 784]
log p [4]: 3.92*

Cc1cc(C(F)(F)F)nn1CC(=O)N1CCC(c2nc(C(=O)OC(C)c3cccc4ccccc34)cs2)CC1 (centres unmarked) [compound 785]
log p [4]: 4.16*

Cc1cc(C(F)(F)F)nn1CC(=O)N1CCC(c2nc(C(=O)OC(C)c3ccc4ccccc4c3)cs2)CC1 (centres unmarked) [compound 786]
log p [4]: 4.18*

Cc1cc(C(F)(F)F)nn1CC(=O)N1CCC(c2nc(C(=O)OCC#Cc3ccccc3)cs2)CC1 [compound 787]
log p [4]: 3.70*

Cc1cc(C(F)(F)F)nn1CC(=O)N1CCC(c2nc(C(=O)OC3CCCCCC3)cs2)CC1 [compound 788]
log p [4]: 4.09*

Cc1cc(C(F)(F)F)nn1CC(=O)N1CCC(c2nc(C(=O)Oc3cccc4c3CCCC4)cs2)CC1 [compound 790]
log p [4]: 4.21*

Cc1cc(C(F)(F)F)nn1CC(=O)N1CCC(c2nc(C(=O)OC3Cc4ccccc4C3)cs2)CC1 [compound 791]
log p [4]: 3.67*

Cc1cc(C(F)(F)F)nn1CC(=O)N1CCC(c2nc(C(=O)Oc3cccc4c3CCCC4)cs2)CC1 [compound 792]
log p [4]: 4.30*

Cc1cc(C(F)(F)F)nn1CC(=O)N1CCC(c2nc(C(=O)Oc3ccc4ncccc4c3)cs2)CC1 [compound 793]
log p [4]: 2.37*

Cc1cc(C(F)(F)F)nn1CC(=O)N1CCC(c2nc(C(=O)Oc3cccc4cnccc34)cs2)CC1 [compound 794]
log p [4]: 2.18*

Cc1cc(C(F)(F)F)nn1CC(=O)N1CCC(c2nc(C(=O)O[C@@H]3CCCc4ccccc43)cs2)CC1 [compound 795]
log p [4]: 4.06*

Cc1cc(C(F)F)n(CC(=O)N2CCC(c3nc(C(=O)OC4CCCCC4)cs3)CC2)n1 [compound 796]
log p [4]: 3.28*

Cc1cc(C)n(C(C)(C)C(=O)N2CCC(c3nc(C(=O)OC4CC(C)CCC4C(C)C)cs3)CC2)n1 (centres unmarked) [compound 797]
log p [4]: 5.51*

C#CC1(OC(=O)c2csc(C3CCN(C(=O)C(C)(C)n4nc(C)cc4C)CC3)n2)CCCC1 [compound 798]
log p [4]: 3.28*

Cc1cc(C)n(C(C)(C)C(=O)N2CCC(c3nc(C(=O)OC4CC5CCC4(C)C5(C)C)cs3)CC2)n1 (centres unmarked) [compound 800]
log p [4]: 5.08*

C=CC(CCC)OC(=O)c1csc(C2CCN(C(=O)C(C)(C)n3nc(C)cc3C)CC2)n1 (centres unmarked) [compound 801]
log p [4]: 3.78*

Cc1cc(C)n(C(C)(C)C(=O)N2CCC(c3nc(C(=O)OC4CC(C)CC(C(C)C)C4)cs3)CC2)n1 (centres unmarked) [compound 802]
log p [4]: 5.58*

Cc1cc(C)n(C(C)(C)C(=O)N2CCC(c3nc(C(=O)OCCN(C)C)cs3)CC2)n1 [compound 803]
log p [4]: 1.03*

C#CC1(OC(=O)c2csc(C3CCN(C(=O)C(C)(C)n4nc(C)cc4C)CC3)n2)CCCCC1 [compound 804]
log p [4]: 3.73*

CCCCC(CC)COC(=O)c1csc(C2CCN(C(=O)C(C)(C)n3nc(C)cc3C)CC2)n1 (centres unmarked) [compound 806]
log p [4]: 5.08*

Cc1cc(C(F)(F)F)nn1CC(=O)N1CCC(c2nc(C(=O)Oc3cccc4ncccc34)cs2)CC1 [compound 807]
log p [4]: 2.59*

Cc1cc(C(F)(F)F)nn1CC(=O)N1CCC(c2nc(C(=O)OC(c3ccccc3)c3ccccc3)cs2)CC1 [compound 808]
log p [4]: 4.17*

Cc1cc(C(F)(F)F)nn1CC(=O)N1CCC(c2nc(C(=O)Oc3cccc4ocnc34)cs2)CC1 [compound 809]
log p [4]: 2.81*

O=C(OC1CCCCC1)c1csc(C2CCN(C(=O)Cn3nc(C(F)F)cc3C(F)F)CC2)n1 [compound 811, Cyclohexyl 2-(1-{[3,5-bis(difluoromethyl)-1H-pyrazol-1-yl]acetyl}piperidin-4-yl)-1,3-thiazole-4-carboxylate]
chromatographic logP [2]: 3.64
chromatographic logP [3]: 3.64

O=C(Oc1cccc2ccccc12)c1csc(C2CCN(C(=O)Cn3nc(C(F)F)cc3C(F)F)CC2)n1 [compound 813, 1-Naphthyl 2-(1-{[3,5-bis(difluoromethyl)-1H-pyrazol-1-yl]acetyl}piperidin-4-yl)-1,3-thiazole-4-carboxylate]
chromatographic logP [2]: 3.64
chromatographic logP [3]: 3.64

COc1ccccc1OC(=O)c1csc(C2CCN(C(=O)Cn3nc(C(F)(F)F)cc3C)CC2)n1 [compound 814]
log p [4]: 3.17*

Cc1cc(C(F)(F)F)nn1CC(=O)N1CCC(c2nc(C(=O)OC(c3ccccc3)C3CC3)cs2)CC1 (centres unmarked) [compound 815]
log p [4]: 3.87*

COc1cccc(OC)c1OC(=O)c1csc(C2CCN(C(=O)Cn3nc(C(F)(F)F)cc3C)CC2)n1 [compound 816]
log p [4]: 3.12*

COc1ccccc1COC(=O)c1csc(C2CCN(C(=O)Cn3nc(C(F)(F)F)cc3C)CC2)n1 [compound 817]
log p [4]: 3.44*

Cc1cc(C(F)(F)F)nn1CC(=O)N1CCC(c2nc(C(=O)OCc3c(Cl)cc(Cl)cc3Cl)cs2)CC1 [compound 818]
log p [4]: 4.53*

Cc1cc(C(F)(F)F)nn1CC(=O)N1CCC(c2nc(C(=O)OCc3ccc(OC(F)(F)F)cc3)cs2)CC1 [compound 819]
log p [4]: 3.99*

Source: patent US8569509B2, “Thiazole-4-carboxylic acid esters and thioesters as plant protection agents” (priority 2008, dated 2013)
